Measured values taken from the NIST ThermoML archive (doi:10.1021/je200922s).

Experiment: xn = mol fraction of the nth substance listed
Conditions: 101 kPa, Liquid; for viscosity: Capillary tube (Ostwald / Ubbelohde) method; for mass density: Vibrating tube method

CCn1cc[n+](C)c1.O=S(=O)([N-]S(=O)(=O)C(F)(F)F)C(F)(F)F + CCO
Conditions	mass density [kg/m3]	viscosity [mPa·s]
293.15 K, x1 = 0.1008	1038.4	1.612
293.15 K, x1 = 0.1971	1179.41	2.78
293.15 K, x1 = 0.3	1276.68	4.6
293.15 K, x1 = 0.3992	1341.77	7.429
293.15 K, x1 = 0.5014	1391.85	10.65
293.15 K, x1 = 0.5955	1427.56	13.87
293.15 K, x1 = 0.6966	1458.64	17.76
293.15 K, x1 = 0.7982	1484.18	21.8
293.15 K, x1 = 0.9041	1506.32	28.74
298.15 K, x1 = 0.1008	1034.14	1.478
298.15 K, x1 = 0.1971	1175.21	2.35
298.15 K, x1 = 0.3	1272.19	4.15
298.15 K, x1 = 0.3992	1337.18	6.479
298.15 K, x1 = 0.5014	1387.12	9.232
298.15 K, x1 = 0.5955	1422.72	12.05
298.15 K, x1 = 0.6966	1453.69	15.18
298.15 K, x1 = 0.7982	1479.17	18.7
298.15 K, x1 = 0.9041	1501.31	24.52
303.15 K, x1 = 0.1008	1029.79	1.25
303.15 K, x1 = 0.1971	1170.59	2.16
303.15 K, x1 = 0.3	1267.5	3.728
303.15 K, x1 = 0.3992	1332.39	5.697
303.15 K, x1 = 0.5014	1382.49	8.1
303.15 K, x1 = 0.5955	1417.99	10.31
303.15 K, x1 = 0.6966	1448.78	13.13
303.15 K, x1 = 0.7982	1474.28	16.12
303.15 K, x1 = 0.9041	1496.34	20.9
308.15 K, x1 = 0.1008	1025.12	1.12
308.15 K, x1 = 0.1971	1166.55	1.9
308.15 K, x1 = 0.3	1263.4	3.157
308.15 K, x1 = 0.3992	1327.88	5.055
308.15 K, x1 = 0.5014	1377.68	7.177
308.15 K, x1 = 0.5955	1413.41	9.109
308.15 K, x1 = 0.6966	1443.98	11.47
308.15 K, x1 = 0.7982	1469.4	14.04
308.15 K, x1 = 0.9041	1491.39	18.05
313.15 K, x1 = 0.1008	1021.47	1.101
313.15 K, x1 = 0.1971	1162.51	1.645
313.15 K, x1 = 0.3	1259.31	2.64
313.15 K, x1 = 0.3992	1323.62	4.404
313.15 K, x1 = 0.5014	1372.99	6.199
313.15 K, x1 = 0.5955	1408.57	7.954
313.15 K, x1 = 0.6966	1439.3	10.01
313.15 K, x1 = 0.7982	1464.39	12.34
313.15 K, x1 = 0.9041	1486.41	15.74
318.15 K, x1 = 0.1008	1019.1	1.001
318.15 K, x1 = 0.1971	1159.51	1.412
318.15 K, x1 = 0.3	1255.23	2.459
318.15 K, x1 = 0.3992	1319.8	3.945
318.15 K, x1 = 0.5014	1368.71	5.603
318.15 K, x1 = 0.5955	1404	7.141
318.15 K, x1 = 0.6966	1434.53	8.965
318.15 K, x1 = 0.7982	1459.6	10.93
318.15 K, x1 = 0.9041	1481.54	13.84
323.15 K, x1 = 0.1008	1015.54	0.987
323.15 K, x1 = 0.1971	1156.54	1.307
323.15 K, x1 = 0.3	1252.11	2.317
323.15 K, x1 = 0.3992	1316.24	3.656
323.15 K, x1 = 0.5014	1364.61	5.195
323.15 K, x1 = 0.5955	1399.5	6.5
323.15 K, x1 = 0.6966	1429.97	8.116
323.15 K, x1 = 0.7982	1454.97	9.799
323.15 K, x1 = 0.9041	1476.73	12.28
